Measured values from US20250382344A1, “Soluble GLP1/GIP/NPY2 Receptor Triple Agonists” (Boehringer Ingelheim International GmH, priority 2024, published 2025).
Like-named read-outs stand apart in the source and are kept apart here. *1 amine or outer side, *2 acyl side, *3 side chain or, on linkers, in order; H or OH if unused. Where a SMILES comes first, the peptide text is derived from it. Side-chain parts run from the residue outwards. [ ]: non-standard residue; d: D form. The star is where a group is joined. C18 diacid = O=C(O)CCCCCCCCCCCCCCCCC(=O)*; γGlu = O=C(O)[C@H](CCC(=O)[*:2])N[*:1]; εLys = N[C@@H](CCCCN[*:1])C(=O)[*:2]; Aib = CC(C)(N)C(=O)O

What was measured:
[1] = biological target: T1, hGLP1R (Homo sapiens, UniProt P43220); test: hGLP1R CreLuc assay in 0.5% and 100% plasma (HEK-293 CRE-luciferase reporter cells); type: cell-based; settings: HEK-293 reporter cells
T1 construct: expressed in transfected cells; host or cells: HEK-293 CRE-luciferase reporter cells
Excerpt: CHO and HEK-293 recombinant cell lines express a luciferase reporter gene under control of the CAMP responsive element (CRE). As a second recombinant protein the GLP-1 and NPY2 receptors were expressed in the reporter gene HEK cells, and the GIP receptor was expressed in the reporter gene CHO cells, respectively. Stimulation of these recombinant cells with an agonist leads to an increase of intracellular CAMP levels. In the presence of CAMP, the transcription factor CRE binding protein (CREB) binds to the CRE and to the CREB binding protein (CBP), which leads to transcription of the luciferase reporter gene. Peptides upon serial-dilution in 100% DMSO were transferred into 384-well assay plates with 5 μl pre-dispensed assay buffer (1×HBSS, 20 mM HEPES, pH7.4 supplemented with 0.5% human plasma) using acoustic dispensing on a Labcyte ECHO. Cryo-preserved transgenic reporter gene cells were thawed in assay buffer. 20 μl (10.000 cells/well) were added to the plate with the peptides and incubated for 4 hours at 37° C. in a humidified incubator. Following incubation, assay plates are equilibrated to room temperature, followed by addition of 25 μl of Bright-Glo™ Luciferase reagent, incubation at room temperature for 10 minutes and analysis of luminescence (Envision Reader). […] EC50 values were calculated by non-linear regression using sigmoid concentration-response with variable slope.
The same assays were run in the presence of 100% plasma with no additional buffer constituents.

[2] = biological target: T2, hGIPR (Homo sapiens, UniProt P48546); test: hGIPR CreLuc assay in 0.5% and 100% plasma (CHO CRE-luciferase reporter cells); type: cell-based
T2 construct: expressed in transfected cells; host or cells: CHO CRE-luciferase reporter cells
T2 sequence (P48546 22-466): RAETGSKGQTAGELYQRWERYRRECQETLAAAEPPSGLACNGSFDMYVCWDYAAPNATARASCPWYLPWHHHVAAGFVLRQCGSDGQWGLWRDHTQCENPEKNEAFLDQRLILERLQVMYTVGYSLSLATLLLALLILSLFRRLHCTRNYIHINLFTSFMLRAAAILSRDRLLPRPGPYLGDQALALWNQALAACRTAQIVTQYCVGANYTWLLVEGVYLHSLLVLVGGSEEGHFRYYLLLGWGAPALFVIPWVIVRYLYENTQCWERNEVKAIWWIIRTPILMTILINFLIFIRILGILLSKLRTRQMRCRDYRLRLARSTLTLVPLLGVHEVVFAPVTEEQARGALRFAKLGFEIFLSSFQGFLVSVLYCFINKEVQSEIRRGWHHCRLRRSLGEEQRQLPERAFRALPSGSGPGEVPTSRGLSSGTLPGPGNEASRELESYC

[3] = 0.5% human plasma, read-out: hGLP1R 0.5% hP
[4] = 0.5% human plasma, read-out: hGIPR 0.5% hP
[5] = 100% human plasma, read-out: hGIPR 100% hP

T1 sequence (P43220 24-463): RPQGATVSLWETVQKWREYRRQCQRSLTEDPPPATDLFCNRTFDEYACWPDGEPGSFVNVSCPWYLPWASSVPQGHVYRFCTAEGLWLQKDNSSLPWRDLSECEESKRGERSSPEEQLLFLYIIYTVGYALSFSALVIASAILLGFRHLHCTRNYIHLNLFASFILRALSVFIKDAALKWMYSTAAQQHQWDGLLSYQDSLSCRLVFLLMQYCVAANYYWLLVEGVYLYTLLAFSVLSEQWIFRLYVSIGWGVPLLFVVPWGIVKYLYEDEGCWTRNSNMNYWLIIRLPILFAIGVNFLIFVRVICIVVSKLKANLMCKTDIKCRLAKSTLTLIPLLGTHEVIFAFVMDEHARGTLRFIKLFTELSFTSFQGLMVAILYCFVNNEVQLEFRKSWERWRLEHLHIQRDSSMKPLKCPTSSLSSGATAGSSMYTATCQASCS

| Compound | EC50 ([1]; hGLP1R 100% hP (nM), 100% human plasma) [nM] | EC50 ([2]; hGIPR 0.5% hP (nM), 0.5% human plasma) [nM] | EC50 ([2]; hGIPR 100% hP (nM), 100% human plasma) [nM] | EC50 [1, 3] [nM] | EC50 [2, 4] [nM] | EC50 ([1]; 100% human plasma, read-out: hGLP1R 100% hP) [nM] | EC50 [2, 5] [nM] |
| --- | --- | --- | --- | --- | --- | --- | --- |
| CC[C@H](C)[C@H](NC(=O)[C@H](Cc1ccccc1)NC(=O)[C@H](C)NC(=O)C(C)(C)NC(=O)[C@H](CCC(N)=O)NC(=O)[C@H](C)NC(=O)[C@H](CCC(N)=O)NC(=O)[C@H](CCCCN)NC(=O)[C@H](CCC(=O)O)NC(=O)[C@H](CC(C)C)NC(=O)C(C)(C)NC(=O)[C@@H](NC(=O)[C@H](CO)NC(=O)[C@H](CC(C)C)NC(=O)[C@H](CC(=O)O)NC(=O)[C@H](CO)NC(=O)[C@@H](NC(=O)[C@H](Cc1ccccc1)NC(=O)[C@@H](NC(=O)CNC(=O)[C@H](CCC(=O)O)NC(=O)C(C)(C)NC(=O)[C@@H](N)Cc1ccc(O)cc1)[C@@H](C)O)[C@@H](C)O)[C@@H](C)CC)C(=O)N[C@@H](CCCNC(=N)N)C(=O)N[C@@H](Cc1c[nH]cn1)C(=O)N[C@@H](CC(C)C)C(=O)N[C@H](C(=O)N[C@@H](CC(N)=O)C(=O)N[C@@H](CCCCNC(=O)[C@@H](N)CCCCNC(=O)CC[C@H](NC(=O)CC[C@H](NC(=O)CC[C@H](NC(=O)CC[C@H](NC(=O)CC[C@H](NC(=O)CC[C@H](NC(=O)CCCCCCCCCCCCCCCCCCC(=O)O)C(=O)O)C(=O)O)C(=O)O)C(=O)O)C(=O)O)C(=O)O)C(=O)NC(C)(C)C(=O)N[C@H](C(=O)N[C@@H](CCCNC(=N)N)C(=O)N[C@@H](CCC(N)=O)C(=O)N[C@@H](CCCNC(=N)N)C(=O)N[C@@H](Cc1ccc(O)cc1)C(N)=O)[C@@H](C)O)[C@@H](C)CC [Compound 21, Y-Aib-E-G-T-F-T-S-D-L-S-I-Aib-L-E-K-Q-A-Q-Aib-A-F-I-R-H-L-I-N-K(1,3)-Aib-T-R-Q-R-Y-NH2.C20DA-gGlu-gGlu-gGlu-gGlu-gGlu-gGlu-eLys(1,2)] | 13.9 | 0.2 | 5.6 |  |  |  |  |
| CC[C@H](C)[C@H](NC(=O)[C@H](CC(C)C)NC(=O)[C@H](Cc1c[nH]cn1)NC(=O)[C@H](CCCNC(=N)N)NC(=O)[C@@H](NC(=O)[C@H](Cc1ccccc1)NC(=O)[C@H](C)NC(=O)C(C)(C)NC(=O)[C@H](CCC(N)=O)NC(=O)[C@H](C)NC(=O)[C@H](CCC(N)=O)NC(=O)[C@H](CCCCN)NC(=O)[C@H](CCC(=O)O)NC(=O)[C@H](CC(C)C)NC(=O)C(C)(C)NC(=O)[C@@H](NC(=O)[C@H](CO)NC(=O)[C@H](Cc1ccc(O)cc1)NC(=O)[C@H](CC(=O)O)NC(=O)[C@H](CO)NC(=O)[C@@H](NC(=O)[C@H](Cc1ccccc1)NC(=O)[C@@H](NC(=O)CNC(=O)[C@H](CCC(=O)O)NC(=O)C(C)(C)NC(=O)[C@@H](N)Cc1ccc(O)cc1)[C@@H](C)O)[C@@H](C)O)[C@@H](C)CC)C(C)C)C(=O)N[C@@H](CC(N)=O)C(=O)N[C@@H](CCCCNC(=O)CC[C@H](NC(=O)CC[C@H](NC(=O)CC[C@H](NC(=O)CC[C@H](NC(=O)CC[C@H](NC(=O)CC[C@H](NC(=O)CCCCCCCCCCCCCCCCCCC(=O)O)C(=O)O)C(=O)O)C(=O)O)C(=O)O)C(=O)O)C(=O)O)C(=O)NC(C)(C)C(=O)N[C@H](C(=O)N[C@@H](CCCNC(=N)N)C(=O)N(C)[C@@H](CCC(N)=O)C(=O)N[C@@H](CCCNC(=N)N)C(=O)N[C@@H](Cc1ccc(O)cc1)C(N)=O)[C@@H](C)O [Compound 114, Y-Aib-E-G-T-F-T-S-D-Y-S-I-Aib-L-E-K-Q-A-Q-Aib-A-F-V-R-H-L-I-N-K(1,3)-Aib-T-R-NMeQ-R-Y-NH2.C20DA-gGlu-gGlu-gGlu-gGlu-gGlu-gGlu(1,2)] |  |  |  | 1.8 | 0.5 |  |  |
| CC[C@H](C)[C@H](NC(=O)[C@H](C)NC(=O)[C@H](Cc1ccc(O)cc1)NC(=O)[C@H](CC(=O)O)NC(=O)[C@H](CO)NC(=O)[C@@H](NC(=O)[C@H](Cc1ccccc1)NC(=O)[C@@H](NC(=O)CNC(=O)[C@H](CCC(=O)O)NC(=O)C(C)(C)NC(=O)[C@@H](N)Cc1ccc(O)cc1)[C@@H](C)O)[C@@H](C)O)C(=O)NC(C)(C)C(=O)N[C@@H](CC(C)C)C(=O)N[C@@H](CCC(=O)O)C(=O)N[C@@H](CCCCN)C(=O)N[C@@H](CCC(N)=O)C(=O)N[C@@H](C)C(=O)N[C@@H](CCC(N)=O)C(=O)NC(C)(C)C(=O)N[C@@H](C)C(=O)N[C@@H](Cc1ccccc1)C(=O)N[C@H](C(=O)N[C@@H](CCCNC(=N)N)C(=O)N[C@@H](Cc1c[nH]cn1)C(=O)N[C@@H](CC(C)C)C(=O)N[C@H](C(=O)N[C@@H](CC(N)=O)C(=O)N[C@@H](CCCCNC(=O)[C@@H](N)CCCCNC(=O)CC[C@H](NC(=O)CC[C@H](NC(=O)CC[C@H](NC(=O)CC[C@H](NC(=O)CC[C@H](NC(=O)CC[C@H](NC(=O)CCCCCCCCCCCCCCCCC(=O)O)C(=O)O)C(=O)O)C(=O)O)C(=O)O)C(=O)O)C(=O)O)C(=O)NC(C)(C)C(=O)N[C@H](C(=O)N[C@@H](CCCNC(=N)N)C(=O)N[C@@H](CCC(N)=O)C(=O)N[C@@H](CCCNC(=N)N)C(=O)N[C@@H](Cc1ccc(O)cc1)C(N)=O)[C@@H](C)O)[C@@H](C)CC)C(C)C [Compound 142, Y-Aib-E-G-T-F-T-S-D-Y-A-I-Aib-L-E-K-Q-A-Q-Aib-A-F-V-R-H-L-I-N-K(1,3)-Aib-T-R-Q-R-Y-NH2.C18DA-gGlu-gGlu-gGlu-gGlu-gGlu-gGlu-eLys(1,2)] |  |  |  |  | 0.3 | 8 | 3.4 |
| CC[C@H](C)[C@H](NC(=O)[C@H](CC(C)C)NC(=O)[C@H](Cc1c[nH]cn1)NC(=O)[C@H](CCCNC(=N)N)NC(=O)[C@@H](NC(=O)[C@H](Cc1ccccc1)NC(=O)[C@H](C)NC(=O)C(C)(C)NC(=O)[C@H](CCC(N)=O)NC(=O)[C@H](C)NC(=O)[C@H](CCC(N)=O)NC(=O)[C@H](CCCNC(=N)N)NC(=O)[C@H](CC(=O)O)NC(=O)[C@H](CC(C)C)NC(=O)C(C)(C)NC(=O)[C@@H](NC(=O)[C@H](CO)NC(=O)[C@H](Cc1ccc(O)cc1)NC(=O)[C@H](CC(=O)O)NC(=O)[C@H](CO)NC(=O)[C@@H](NC(=O)[C@H](Cc1ccccc1)NC(=O)[C@@H](NC(=O)CNC(=O)[C@H](CCC(=O)O)NC(=O)C(C)(C)NC(=O)[C@@H](N)Cc1ccc(O)cc1)[C@@H](C)O)[C@@H](C)O)[C@@H](C)CC)C(C)C)C(=O)N[C@@H](CC(N)=O)C(=O)N[C@@H](CCCCNC(=O)[C@@H](N)CCCCNC(=O)CC[C@H](NC(=O)CC[C@H](NC(=O)CC[C@H](NC(=O)CC[C@H](NC(=O)CC[C@H](NC(=O)CC[C@H](NC(=O)CCCCCCCCCCCCCCCCC(=O)O)C(=O)O)C(=O)O)C(=O)O)C(=O)O)C(=O)O)C(=O)O)C(=O)NC(C)(C)C(=O)N[C@H](C(=O)N[C@@H](CCCNC(=N)N)C(=O)N[C@@H](CCC(N)=O)C(=O)N[C@@H](CCCNC(=N)N)C(=O)N[C@@H](Cc1ccc(O)cc1)C(N)=O)[C@@H](C)O [Compound 147, Y-Aib-E-G-T-F-T-S-D-Y-S-I-Aib-L-D-R-Q-A-Q-Aib-A-F-V-R-H-L-I-N-K(1,3)-Aib-T-R-Q-R-Y-NH2.C18DA-gGlu-gGlu-gGlu-gGlu-gGlu-gGlu-eLys(1,2)] (H-Y[Aib]EGTFTSDYSI[Aib]LDRQAQ[Aib]AFVRHLINK([εLys-γGlu-γGlu-γGlu-γGlu-γGlu-γGlu-C18 diacid])[Aib]TRQRY-NH2) |  |  |  | 0.3 | 0.2 |  | 5 |
| CC[C@H](C)[C@H](NC(=O)[C@H](CO)NC(=O)[C@H](Cc1ccc(O)cc1)NC(=O)[C@H](CC(=O)O)NC(=O)[C@H](CO)NC(=O)[C@@H](NC(=O)[C@H](Cc1ccccc1)NC(=O)[C@@H](NC(=O)CNC(=O)[C@H](CCC(=O)O)NC(=O)C(C)(C)NC(=O)[C@@H](N)Cc1ccc(O)cc1)[C@@H](C)O)[C@@H](C)O)C(=O)NC(C)(C)C(=O)N[C@@H](CC(C)C)C(=O)N[C@@H](CC(=O)O)C(=O)N[C@@H](CCCCN)C(=O)N[C@@H](CCC(N)=O)C(=O)N[C@@H](C)C(=O)N[C@@H](CCC(N)=O)C(=O)NC(C)(C)C(=O)N[C@@H](C)C(=O)N[C@@H](Cc1ccccc1)C(=O)N[C@H](C(=O)N[C@@H](CCCNC(=N)N)C(=O)N[C@@H](Cc1c[nH]cn1)C(=O)N[C@@H](CC(C)C)C(=O)N[C@@H](CC(C)C)C(=O)N[C@@H](CC(N)=O)C(=O)N[C@@H](CCCCNC(=O)[C@@H](N)CCCCNC(=O)CC[C@H](NC(=O)CC[C@H](NC(=O)CC[C@H](NC(=O)CC[C@H](NC(=O)CC[C@H](NC(=O)CC[C@H](NC(=O)CCCCCCCCCCCCCCCCC(=O)O)C(=O)O)C(=O)O)C(=O)O)C(=O)O)C(=O)O)C(=O)O)C(=O)NC(C)(C)C(=O)N[C@H](C(=O)N[C@@H](CCCNC(=N)N)C(=O)N[C@@H](CCC(N)=O)C(=O)N[C@@H](CCCNC(=N)N)C(=O)N[C@@H](Cc1ccc(O)cc1)C(N)=O)[C@@H](C)O)C(C)C [Compound 173, Y-Aib-E-G-T-F-T-S-D-Y-S-I-Aib-L-D-K-Q-A-Q-Aib-A-F-V-R-H-L-L-N-K(1,3)-Aib-T-R-Q-R-Y-NH2.C18DA-gGlu-gGlu-gGlu-gGlu-gGlu-gGlu-eLys(1,2)] |  |  |  | 0.2 | 0.7 |  |  |
